Test results published in PMC11124362, “Metabolism, Disposition, Excretion, and Potential Transporter Inhibition of 7–16, an Improving 5-HT2A Receptor Antagonist and Inverse Agonist for Parkinson’s Disease” (Molecules, 2024).

Assays:
hERG = tested on: hERG; set-up: method as in PMID 35279606; conditions: versus pimavanserin; cited from earlier work
[1] = Metabolite identification in dog liver microsomes; assay type: in vitro ADME; conditions: 7–16 10 µM, liver microsomes 1 mg/mL, NADPH, 37 °C, 60 min
Method: (§1) In accordance with our previous methods, 7–16 (10 µM) was incubated with mouse, rat, dog, monkey, and human liver microsome proteins (1 mg/mL) in 100 mM sodium phosphate buffer (pH 7.4) containing 10 mM magnesium chloride and 2 mM NADPH at 37 °C for 60 min. All samples were prepared in duplicates. The reactions were terminated by adding three times the volume of ice-cold acetonitrile (600 µL) and stored at −20 °C until analysis. Control samples without NADPH and 0-time point samples were included. As a positive control, testosterone (10 µM), which was metabolized to produce the hydroxylation metabolite, was used as a substrate to confirm the activity of the incubation system.
(§2) After pre-treatments, the samples were analyzed by an Acquity UPLC system coupled with a diode array detector (Waters Corporation, Milford, MA, USA) and Q Exactive HRMS (Thermo Electron Corporation, Waltham, MA, USA) (UPLC–UV-Q Exactive HRMS). Samples were separated on an Agilent XDB C18 column (150 × 2.1 mm i.d. 3.5 μm, Agilent Corporation, Santa Clara, CA, USA) at 40 °C by gradient elution with water and acetonitrile containing 0.1% formic acid. The flow rate was 0.40 mL/min. The ultraviolet (UV) detection wavelength was 286 nm. Q Exactive HRMS were operated at positive ion mode (3.5 kV) using a heating electrospray ionization source. Mass calibration was required to be performed before conducting experiments so as to achieve the best mass accuracy and mass calibration should be performed every five days. The metabolites were detected by full MS/dd-MS^2 analysis from m/z 100 to m/z 1000. The resolution of the first-class scan and second-class scan was 70,000 and 17,500, respectively. Thermo Compound Discover software was used to identify expected and unknown metabolites, and we finally proposed the 7–16 metabolic pathways based on the deduced metabolites and relevant drug biotransformation knowledge.

CYP2C9 = experiment: Metabolic phenotype by rhCYP isozymes, CYP2C9; assay type: in vitro ADME, human; conditions: 7–16 1 µM
Method: (§3) Based on the result of metabolite identification, two metabolites were selected as targets for metabolic phenotyping analysis. Seven CYP isozymes (CYP1A2, CYP2B6, CYP2C8, CYP2C9, CYP2C19, CYP2D6, and CYP3A4) were investigated using the rhCYP isozymes method. In brief, 7–16 (1 µΜ) was incubated with each rhCYP isozyme ([…]) in 100 mM sodium phosphate buffer (pH 7.4) containing 3 mM magnesium chloride. After 10 min of preincubation at 37 °C, the reactions were initiated by adding NADPH (1 mM) and then incubated at 37 °C in a shaking water bath for 0, 5, 15, and 30 min. The specific substrates of each rhCYP isozyme were incubated as the above method to confirm the activity of the incubation system. The samples were prepared in triplicates. The reactions were terminated by adding three times the volume of ice-cold acetonitrile (600 µL) and stored at −20 °C until analysis. After pre-treatment, the samples were determined by the LC–MS/MS (Shimadzu Exion-Triple Quad 4500) method. The relative contribution rate of each isozyme to the metabolism of 7–16 was evaluated in HLMs using the following formula: Contributionx% = Vx × Abundancex (pmol/mg protein)/Σ(Vi × Abundancei). Vx (µL/min/pmol) is the production rate of metabolites for each rhCYP isozyme.

P-gp = target: T1, P-gp (Homo sapiens, UniProt P08183); experiment: P-gp inhibitor assay in MDR1-MDCKII cells; assay type: in vitro ADME; conditions: substrate Digoxin 10.0 µM, efflux ratio, read-out: Inhibition IC50, P-gp
T1 construct: expressed in transfected cells; host or cells: MDR1-MDCKII (Madin-Darby canine kidney cells)

[2] = Metabolite identification in human liver microsomes; assay type: in vitro ADME; conditions: 7–16 10 µM, liver microsomes 1 mg/mL, NADPH, 37 °C, 60 min
Method: as §1, §2

CYP1A2 = tested on: CYP1A2; set-up: method as in PMID 35279606; conditions: previous study; read-out: CYP1A2 inhibition IC50; cited from earlier work
5-HT2A receptor = target: 5-HT2A receptor; set-up: method as in PMID 35279606; conditions: cited from earlier work
OAT3 = target: T2, OAT3 (Homo sapiens, UniProt Q8TCC7)
T2 sequence (Q8TCC7 1-542): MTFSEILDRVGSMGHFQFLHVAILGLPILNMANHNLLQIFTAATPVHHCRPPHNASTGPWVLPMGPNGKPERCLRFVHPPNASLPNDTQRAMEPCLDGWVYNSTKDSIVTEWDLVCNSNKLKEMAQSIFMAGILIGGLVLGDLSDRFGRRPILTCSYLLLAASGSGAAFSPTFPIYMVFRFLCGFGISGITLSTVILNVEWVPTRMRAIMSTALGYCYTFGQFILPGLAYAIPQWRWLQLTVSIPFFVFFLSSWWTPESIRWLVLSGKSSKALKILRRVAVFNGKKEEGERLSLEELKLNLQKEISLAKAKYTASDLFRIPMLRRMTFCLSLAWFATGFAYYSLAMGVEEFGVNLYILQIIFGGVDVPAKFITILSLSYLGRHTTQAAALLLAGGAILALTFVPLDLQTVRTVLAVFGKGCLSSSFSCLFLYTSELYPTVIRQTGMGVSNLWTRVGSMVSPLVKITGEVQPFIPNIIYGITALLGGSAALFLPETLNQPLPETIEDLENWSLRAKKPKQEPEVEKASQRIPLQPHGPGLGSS

CYP3A4 = tested on: CYP3A4; set-up: method as in PMID 35279606; conditions: previous study; read-out: CYP3A4 inhibition IC50; cited from earlier work
CYP2C19 = experiment: Metabolic phenotype by rhCYP isozymes, CYP2C19; assay type: in vitro ADME, human; conditions: 7–16 1 µM
Method: as §3

T1 sequence (P08183 whole entry): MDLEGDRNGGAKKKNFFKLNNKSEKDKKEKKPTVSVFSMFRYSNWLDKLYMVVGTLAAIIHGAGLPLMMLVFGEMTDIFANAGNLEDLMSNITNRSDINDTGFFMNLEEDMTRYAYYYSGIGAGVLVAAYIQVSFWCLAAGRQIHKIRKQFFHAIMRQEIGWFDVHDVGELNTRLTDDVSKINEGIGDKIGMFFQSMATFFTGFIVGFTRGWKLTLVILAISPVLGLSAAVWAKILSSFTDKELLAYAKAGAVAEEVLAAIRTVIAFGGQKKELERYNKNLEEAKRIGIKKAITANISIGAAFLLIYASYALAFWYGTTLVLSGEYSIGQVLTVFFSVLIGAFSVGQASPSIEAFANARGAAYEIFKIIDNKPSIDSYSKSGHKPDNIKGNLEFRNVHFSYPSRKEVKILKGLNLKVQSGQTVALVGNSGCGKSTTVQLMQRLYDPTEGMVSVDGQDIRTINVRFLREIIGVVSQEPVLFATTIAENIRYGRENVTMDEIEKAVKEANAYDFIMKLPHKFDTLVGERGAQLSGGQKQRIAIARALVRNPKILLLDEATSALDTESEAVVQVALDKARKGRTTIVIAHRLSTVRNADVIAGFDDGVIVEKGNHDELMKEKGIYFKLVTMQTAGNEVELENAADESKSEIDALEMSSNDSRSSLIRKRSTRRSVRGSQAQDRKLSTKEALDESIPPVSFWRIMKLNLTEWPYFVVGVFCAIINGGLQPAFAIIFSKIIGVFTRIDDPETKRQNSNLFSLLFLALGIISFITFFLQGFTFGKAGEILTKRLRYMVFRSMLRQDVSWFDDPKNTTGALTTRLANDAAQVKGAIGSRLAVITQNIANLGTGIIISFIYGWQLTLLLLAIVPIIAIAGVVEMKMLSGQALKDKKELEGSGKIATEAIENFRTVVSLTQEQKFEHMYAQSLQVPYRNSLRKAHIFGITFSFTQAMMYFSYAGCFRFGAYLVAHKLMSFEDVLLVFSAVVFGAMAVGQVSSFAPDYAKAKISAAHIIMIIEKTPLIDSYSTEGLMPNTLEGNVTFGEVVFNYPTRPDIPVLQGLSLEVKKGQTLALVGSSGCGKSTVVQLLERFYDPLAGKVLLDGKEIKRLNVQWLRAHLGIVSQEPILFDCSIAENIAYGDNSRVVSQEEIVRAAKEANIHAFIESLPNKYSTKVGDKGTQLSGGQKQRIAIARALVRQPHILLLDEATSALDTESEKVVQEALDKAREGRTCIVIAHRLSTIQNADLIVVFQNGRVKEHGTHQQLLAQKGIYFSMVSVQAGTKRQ

SMILES: CN1CCC(N(Cc2ccc(F)cn2)C(=O)NCc2ccc(OCC(F)(F)F)cc2)CC1 [7–16, 3-(4-(2,2,2-trifluoroethoxy)benzyl)-1-((5-fluoropyridin-2-yl)methyl)-1-(1-methylpiperidin-4-yl) urea]
- fold weaker hERG inhibitory activity than pimavanserin (hERG): 2 fold
- Relative Abundance, UV Area% Dog [1]: 77.2%
- relative contribution of CYP2C9 to metabolism (CYP2C9): little or no contribution
- IC50 (P-gp): 30.6 µM
- Relative Abundance, UV Area% Human [2]: 95.2%
- IC50 (CYP1A2): 8.5 µM
- IC50 (5-HT2A receptor; previous study, read-out: 5-HT2A receptor antagonist activity IC50): 0.00054 µM
- fold higher 5-HT2A receptor antagonist activity than pimavanserin (5-HT2A receptor; versus pimavanserin): 50 fold
- IC50 (OAT3): > 100 µM
- IC50 (CYP3A4): > 62.9 µM
- relative contribution of CYP2C19 to metabolism (CYP2C19): little or no contribution
